Results as given in PubChem BioAssay (NCI).
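Abbreviation: GI50, concentration required for 50% inhibition of growth. The concentration for full growth arrest is given as TGI.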

Assays:
Assay in all cases: NCI anticancer screen, dose series, 384-well format; in the data active = GI50 below about 0.43 µM; inactive = the rest
786-0 renal = tested on: 786-0 renal
A498 renal = tested on: A498 renal
A549 NSCLC = tested on: A549 NSCLC
ACHN renal = tested on: ACHN renal
BT-549 breast = tested on: BT-549 breast
CAKI-1 renal = tested on: CAKI-1 renal
CCRF-CEM leukemia = tested on: CCRF-CEM leukemia
COLO 205 colon = tested on: COLO 205 colon
DU-145 prostate = tested on: DU-145 prostate
EKVX NSCLC = tested on: EKVX NSCLC
HCC-2998 colon = tested on: HCC-2998 colon
HCT-116 colon = tested on: HCT-116 colon
HCT-15 colon = tested on: HCT-15 colon
HL-60(TB) leukemia = tested on: HL-60(TB) leukemia
HOP-62 NSCLC = tested on: HOP-62 NSCLC
HOP-92 NSCLC = tested on: HOP-92 NSCLC
HS 578T breast = tested on: HS 578T breast
HT29 colon = tested on: HT29 colon
IGROV1 ovarian = tested on: IGROV1 ovarian
K-562 leukemia = tested on: K-562 leukemia
KM12 colon = tested on: KM12 colon
LOX IMVI melanoma = tested on: LOX IMVI melanoma
M14 melanoma = tested on: M14 melanoma
MALME-3M melanoma = tested on: MALME-3M melanoma
MCF7 breast = tested on: MCF7 breast
MDA-MB-231 breast = tested on: MDA-MB-231 breast
MDA-MB-435 melanoma = tested on: MDA-MB-435 melanoma
MDA-MB-468 breast = tested on: MDA-MB-468 breast
MOLT-4 leukemia = tested on: MOLT-4 leukemia
NCI-H226 lung = tested on: NCI-H226 lung
NCI-H23 lung = tested on: NCI-H23 lung
NCI-H322M lung = tested on: NCI-H322M lung
NCI-H460 NSCLC = tested on: NCI-H460 NSCLC
NCI-H522 lung = tested on: NCI-H522 lung
NCI/ADR-RES ovarian = tested on: NCI/ADR-RES ovarian
OVCAR-3 ovarian = tested on: OVCAR-3 ovarian
OVCAR-4 ovarian = tested on: OVCAR-4 ovarian
OVCAR-5 ovarian = tested on: OVCAR-5 ovarian
OVCAR-8 ovarian = tested on: OVCAR-8 ovarian
PC-3 prostate = tested on: PC-3 prostate
RPMI-8226 leukemia = tested on: RPMI-8226 leukemia
RXF 393 renal = tested on: RXF 393 renal
SF-268 CNS = tested on: SF-268 CNS
SF-295 CNS = tested on: SF-295 CNS
SF-539 CNS = tested on: SF-539 CNS
SK-MEL-28 melanoma = tested on: SK-MEL-28 melanoma
SK-MEL-5 melanoma = tested on: SK-MEL-5 melanoma
SK-OV-3 ovarian = tested on: SK-OV-3 ovarian
SN12C renal = tested on: SN12C renal
SNB-19 CNS = tested on: SNB-19 CNS
SNB-75 CNS = tested on: SNB-75 CNS
SW-620 colon = tested on: SW-620 colon
T-47D breast = tested on: T-47D breast
TK-10 renal = tested on: TK-10 renal
U251 glioblastoma = tested on: U251 glioblastoma
UACC-257 melanoma = tested on: UACC-257 melanoma
UACC-62 melanoma = tested on: UACC-62 melanoma
UO-31 renal = tested on: UO-31 renal

CNC(=O)c1cc2c(Oc3ccc(NC(=S)NC(=O)Cc4ccccc4)cc3F)ccnc2cc1OC
26 µM: TGI (T-47D breast)
33.1 µM: TGI (SK-MEL-5 melanoma)
37.2 µM: TGI (SF-295 CNS)
23.7 µM: TGI (NCI-H23 lung)
10.6 µM: TGI (MOLT-4 leukemia)
83.2 µM: TGI (MDA-MB-231 breast)
28.8 µM: TGI (CCRF-CEM leukemia)
54.5 µM: TGI (ACHN renal)
6.66 µM: TGI (SF-268 CNS)
95.4 µM: TGI (UACC-62 melanoma)
99.7 µM: TGI (786-0 renal)
1700 nM: TGI (K-562 leukemia)
81.7 µM: TGI (A498 renal)
36.2 µM: TGI (SK-OV-3 ovarian)
93.3 µM: TGI (OVCAR-5 ovarian)
45.7 µM: TGI (NCI-H226 lung)
25.2 µM: TGI (MDA-MB-468 breast)
9.66 µM: TGI (BT-549 breast)
27.1 µM: TGI (NCI-H522 lung)
6.88 µM: TGI (RXF 393 renal)
19.5 µM: TGI (SN12C renal)
27.8 µM: TGI (SF-539 CNS)
6.95 µM: TGI (SNB-75 CNS)
inactive: GI50 ([…]-0 renal) 8.3 µM | GI50 (A498 renal) 8.59 µM | GI50 (A549 NSCLC) 12.3 µM | GI50 (ACHN renal) 5.11 µM | GI50 (BT-549 breast) 3.42 µM | GI50 (CAKI-1 renal) 4.55 µM | GI50 (CCRF-CEM leukemia) 5.36 µM | GI50 (COLO 205 colon) 12.1 µM | GI50 (DU-145 prostate) 34.8 µM | GI50 (EKVX NSCLC) 28.9 µM | GI50 (HCC-2998 colon) > 100 µM | GI50 (HCT-116 colon) 21 µM | GI50 (HCT-15 colon) 8.36 µM | GI50 (HL-60(TB) leukemia) 29.2 µM | GI50 (HOP-62 NSCLC) 17.9 µM | GI50 (HOP-92 NSCLC) 1500 nM | GI50 (HS 578T breast) 2490 nM | GI50 (HT29 colon) 5.67 µM | GI50 (IGROV1 ovarian) 3.03 µM | GI50 (K-562 leukemia) 486 nM | GI50 (KM12 colon) 3.4 µM | GI50 (LOX IMVI melanoma) 8.61 µM | GI50 (M14 melanoma) 8.36 µM | GI50 (MALME-3M melanoma) 15.9 µM | GI50 (MCF7 breast) 14.5 µM | GI50 (MDA-MB-231 breast) 7.39 µM | GI50 (MDA-MB-435 melanoma) 31.1 µM | GI50 (MDA-MB-468 breast) 5.2 µM | GI50 (MOLT-4 leukemia) 2200 nM | GI50 (NCI-H226 lung) 4.01 µM | GI50 (NCI-H23 lung) 1950 nM | GI50 (NCI-H322M lung) 31.9 µM | GI50 (NCI-H460 NSCLC) 20.1 µM | GI50 (NCI-H522 lung) 5.3 µM | GI50 (NCI/ADR-RES ovarian) 18.8 µM | GI50 (OVCAR-3 ovarian) 17.7 µM | GI50 (OVCAR-4 ovarian) 27.4 µM | GI50 (OVCAR-5 ovarian) 19.9 µM | GI50 (OVCAR-8 ovarian) 36.2 µM | GI50 (PC-3 prostate) 10.9 µM | GI50 (RPMI-8226 leukemia) 14.7 µM | GI50 (RXF 393 renal) 2470 nM | GI50 (SF-268 CNS) 2500 nM | GI50 (SF-295 CNS) 2250 nM | GI50 (SF-539 CNS) 5.2 µM | GI50 (SK-MEL-28 melanoma) 29.4 µM | GI50 (SK-MEL-5 melanoma) 8.55 µM | GI50 (SK-OV-3 ovarian) 9.39 µM | GI50 (SN12C renal) 2370 nM | GI50 (SNB-19 CNS) 49 µM | GI50 (SNB-75 CNS) 1900 nM | GI50 (SW-620 colon) 47.2 µM | GI50 (T-47D breast) 5.05 µM | GI50 (TK-10 renal) 24.3 µM | GI50 (U251 glioblastoma) 18.8 µM | GI50 (UACC-257 melanoma) 18.9 µM | GI50 (UACC-62 melanoma) 5.44 µM | GI50 (UO-31 renal) 23 µM
7.12 µM: TGI (HS 578T breast)
17.5 µM: TGI (CAKI-1 renal)
7.58 µM: TGI (HOP-92 NSCLC)
> 100 µM: TGI (A549 NSCLC) | TGI (COLO 205 colon) | TGI (DU-145 prostate) | TGI (EKVX NSCLC) | TGI (HCC-2998 colon) | TGI (HCT-116 colon) | TGI (HCT-15 colon) | TGI (HL-60(TB) leukemia) | TGI (HOP-62 NSCLC) | TGI (HT29 colon) | TGI (KM12 colon) | TGI (LOX IMVI melanoma) | TGI (M14 melanoma) | TGI (MALME-3M melanoma) | TGI (MCF7 breast) | TGI (MDA-MB-435 melanoma) | TGI (NCI-H322M lung) | TGI (NCI-H460 NSCLC) | TGI (NCI/ADR-RES ovarian) | TGI (OVCAR-3 ovarian) | TGI (OVCAR-4 ovarian) | TGI (OVCAR-8 ovarian) | TGI (PC-3 prostate) | TGI (RPMI-8226 leukemia) | TGI (SK-MEL-28 melanoma) | TGI (SNB-19 CNS) | TGI (SW-620 colon) | TGI (TK-10 renal) | TGI (U251 glioblastoma) | TGI (UACC-257 melanoma) | TGI (UO-31 renal)
17 µM: TGI (IGROV1 ovarian)
